Consider 22 molecules from ChEMBL document CHEMBL3351975, “Design and synthesis of new series of coumarin-aminopyran derivatives possessing potential anti-depressant-like activity” (Bioorg Med Chem Lett, 2015).

Calls of active or inactive are those of the source. No cut-off for these calls is given here.

Data set [1] relates to Mus musculus. As to the kind of experiment: Neurotoxicity in Swiss albino mouse assessed as motor impairment effects at 1 mg/kg, ip measured for 30 to 180 mins duration by rotarod test relative to control. As to conditions: in vivo. Type of data set: toxicity, organism-based. More on the design: dose 1 mg/kg, route intraperitoneal.
In data set [2] the test system is Mus musculus. As to the kind of experiment: Neurotoxicity in Swiss albino mouse assessed as effect on locomotor activity measured as horizontal activity at 0.5 mg/kg, ip measured for 2 min at 30 min intervals for 90 mins duration by open field test relative to control. Type of data set: toxicity, organism-based. More on the design: dose 0.5 mg/kg, route intraperitoneal. As to conditions: in vivo, 1.5 h.

Data set [3] deals with Mus musculus. As to the kind of experiment: Antidepressant-like activity in Swiss albino mouse assessed as decrease in immobility time at 0.25 mg/kg, ip measured for 5 mins by forced swimming test relative to control. Type of data set: functional. The settings on record: for inhibition in vivo at 0.25 mg/kg: route intraperitoneal.
For data set [4], the system named is Mus musculus. As to the kind of experiment: Antidepressant-like activity in Swiss albino mouse assessed as decrease in immobility time at 0.5 mg/kg, ip measured for 5 mins by forced swimming test relative to control. It is filed as functional. As to conditions: route intraperitoneal.
Data set [5] relates to Mus musculus. Briefly: Neurotoxicity in Swiss albino mouse assessed as effect on locomotor activity measured as total distance travelled at 0.5 mg/kg, ip measured for 2 min at 30 min intervals for 90 mins duration by open field test relative to control. Type of data set: toxicity, organism-based. The arrangement: dose 0.5 mg/kg, route intraperitoneal. The settings on record: in vivo, 1.5 h.

Data set [6] has as its system Mus musculus. Briefly: Antidepressant-like activity in Swiss albino mouse assessed as decrease in immobility time at 0.5 mg/kg, ip measured for 5 mins by tail suspension test relative to control. It is filed as functional, organism-based. More on the design: dose 0.5 mg/kg.
Data set [7] relates to Mus musculus. As to the kind of experiment: Antidepressant-like activity in Swiss albino mouse assessed as decrease in immobility time at 1 mg/kg, ip measured for 5 mins by forced swimming test relative to control. More on the design: dose 1 mg/kg. Type of data set: functional, organism-based.
In data set [8] the test system is Mus musculus. Briefly: Antidepressant-like activity in Swiss albino mouse assessed as decrease in immobility time at 20 mg/kg, ip measured for 5 mins by forced swimming test relative to control. The settings on record: route intraperitoneal. It is filed as functional.

As to `CCC(C)c1cc(C2C(C#N)=C(N)OC3=C2C(=O)CC(C)(C)C3)cc2cc(-c3ccc(OC)c(OC)c3)c(=O)oc12` (centres undefined), the Activity result in the data set with Mus musculus [1], in the data set with Mus musculus [2] and in the data set with Mus musculus [5] was “Non-toxic” in each case. Further, the inhibition in vivo at 0.25 mg/kg in the data set with Mus musculus [3] worked out at 35%. For the same molecule, the inhibition in vivo at 0.5 mg/kg with Mus musculus [4] was 57.4%. Also, the result in the data set with Mus musculus [6] and with Mus musculus [7] was Active.
Turning to `COc1cc(-c2cc3cc(C4C(C#N)=C(N)OC5=C4C(=O)CC(C)(C)C5)cc(C(C)C)c3oc2=O)cc(OC)c1OC` (centres undefined), the inhibition in vivo at 0.5 mg/kg in the data set on Mus musculus [4] turned out to be 29.2%. Further, in the data set on Mus musculus [7], the outcome was Active.
For `COc1ccc(-c2cc3cc(C4C(C#N)=C(N)OC5=C4C(=O)CC(C)(C)C5)cc(C(C)(C)C)c3oc2=O)cc1` (centres undefined), in the data set on Mus musculus [4], the inhibition in vivo at 0.5 mg/kg turned out to be 27.2%.
For `CCC(C)c1cc(C2C(C#N)=C(N)OC3=C2C(=O)CCC3)cc2cc(-c3cc(OC)c(OC)c(OC)c3)c(=O)oc12` (centres undefined), the Activity entry with Mus musculus [1], with Mus musculus [2] and in the data set with Mus musculus [5] was “Non-toxic” in each case. Moreover, the inhibition entry in the data set with Mus musculus [3] was “inactive”. Further, the inhibition in vivo at 0.5 mg/kg with Mus musculus [4] was found to be 56.1%. Further, the result in the data set on Mus musculus [6] and with Mus musculus [7] was Active.
Take `COc1ccc(-c2cc3cc(C4C(C#N)=C(N)OC5=C4C(=O)CC(C)(C)C5)cc(C(C)C)c3oc2=O)cc1` (centres undefined): the Activity result in the data set with Mus musculus [1], with Mus musculus [2] and in the data set with Mus musculus [5] was “Non-toxic” throughout. In addition, in the data set with Mus musculus [3], the inhibition result is “inactive”. In addition, in the data set with Mus musculus [4], the inhibition in vivo at 0.5 mg/kg turned out to be 64.9%. The outcome in the data set with Mus musculus [6] and in the data set on Mus musculus [7] was Active.
With `COc1ccc(-c2cc3cc(C4C(C#N)=C(N)OC5=C4C(=O)CCC5)cc(C(C)C)c3oc2=O)cc1OC` (centres undefined), the Activity entry with Mus musculus [1], in the data set on Mus musculus [2] and with Mus musculus [5] was “Non-toxic” throughout. Moreover, in the data set with Mus musculus [3], the inhibition in vivo at 0.25 mg/kg is 49%. For the same molecule, the inhibition in vivo at 0.5 mg/kg in the data set on Mus musculus [4] worked out at 57.2%. The outcome in the data set with Mus musculus [6] and in the data set on Mus musculus [7] was Active.
As to `COc1cc(-c2cc3cc(C4C(C#N)=C(N)OC5=C4C(=O)CC(C)(C)C5)cc(C)c3oc2=O)cc(OC)c1OC` (centres undefined), the inhibition in vivo at 0.5 mg/kg with Mus musculus [4] was 6.37%.
On the same count and under the same terms, next, `COc1ccc(-c2cc3cc(C4C(C#N)=C(N)OC5=C4C(=O)CCC5)cc(C(C)(C)C)c3oc2=O)cc1OC` (centres undefined): -16.6%.
`CCC(C)c1cc(C2C(C#N)=C(N)OC3=C2C(=O)CC(C)(C)C3)cc2cc(-c3ccc(OC)cc3)c(=O)oc12` (centres undefined): the inhibition in vivo at 0.5 mg/kg in the data set with Mus musculus [4] was found to be 26.9%. In addition, the outcome with Mus musculus [7] was Active.
For `CCC(C)c1cc(C2C(C#N)=C(N)OC3=C2C(=O)CCC3)cc2cc(-c3ccc(OC)cc3)c(=O)oc12` (centres undefined) the same measures were 35% and “Active”.
As to `COc1ccc(-c2cc3cc(C4C(C#N)=C(N)OC5=C4C(=O)CC(C)(C)C5)cc(C(C)(C)C)c3oc2=O)cc1OC` (centres undefined), the inhibition in vivo at 0.5 mg/kg with Mus musculus [4] was 22.5%.
Consider `COc1ccc(-c2cc3cc(C4C(C#N)=C(N)OC5=C4C(=O)CCC5)cc(C(C)C)c3oc2=O)cc1` (centres undefined), for which the Activity entry in the data set with Mus musculus [1], with Mus musculus [2] and with Mus musculus [5] was “Non-toxic” each time. The inhibition entry in the data set with Mus musculus [3] is “inactive”. Also, the inhibition in vivo at 0.5 mg/kg in the data set with Mus musculus [4] was determined as 69.7%. Besides, the result in the data set with Mus musculus [6] and with Mus musculus [7] was Active.
Turning to `COc1cc(-c2cc3cc(C4C(C#N)=C(N)OC5=C4C(=O)CCC5)cc(C(C)(C)C)c3oc2=O)cc(OC)c1OC` (centres undefined), the inhibition in vivo at 0.5 mg/kg in the data set with Mus musculus [4] was 5.33%.
On to `COc1cc(-c2cc3cc(C4C(C#N)=C(N)OC5=C4C(=O)CCC5)cc(C)c3oc2=O)cc(OC)c1OC` (centres undefined), for which the inhibition in vivo at 0.5 mg/kg with Mus musculus [4] worked out at 5.22%.
Turning to `COc1ccc(-c2cc3cc(C4C(C#N)=C(N)OC5=C4C(=O)CCC5)cc(C(C)(C)C)c3oc2=O)cc1` (centres undefined), the inhibition in vivo at 0.5 mg/kg with Mus musculus [4] amounted to 30.6%. For the same molecule, the result with Mus musculus [7] was Active.
For the molecule `CN(C)CCCN1c2ccccc2CCc2ccccc21`, the result in the data set with Mus musculus [6] was Active.
Turning to `COc1ccc(-c2cc3cc(C4C(C#N)=C(N)OC5=C4C(=O)CC(C)(C)C5)cc(C(C)C)c3oc2=O)cc1OC` (centres undefined), the Activity entry in the data set with Mus musculus [1], in the data set on Mus musculus [2] and in the data set on Mus musculus [5] was “Non-toxic” in each case. The inhibition in vivo at 0.25 mg/kg in the data set on Mus musculus [3] was found to be 41%. In addition, the inhibition in vivo at 0.5 mg/kg in the data set on Mus musculus [4] was 86.6%. Further, the result in the data set with Mus musculus [6] and with Mus musculus [7] was Active.
Consider `CNCCC(Oc1ccc(C(F)(F)F)cc1)c1ccccc1` (centres undefined) [FLUOXETINE], for which the inhibition in vivo at 20 mg/kg in the data set with Mus musculus [8] turned out to be 69.8%. In the data set on Mus musculus [6], the outcome was Active.
For `COc1ccc(-c2cc3cc(C4C(C#N)=C(N)OC5=C4C(=O)CC(C)(C)C5)cc(C)c3oc2=O)cc1OC` (centres undefined), the inhibition in vivo at 0.5 mg/kg in the data set with Mus musculus [4] came out at 10.4%.
For the molecule `CCC(C)c1cc(C2C(C#N)=C(N)OC3=C2C(=O)CC(C)(C)C3)cc2cc(-c3cc(OC)c(OC)c(OC)c3)c(=O)oc12` (centres undefined), the inhibition in vivo at 0.5 mg/kg in the data set with Mus musculus [4] turned out to be 28.2%. Besides, in the data set with Mus musculus [7], the outcome was Active.
With `COc1cc(-c2cc3cc(C4C(C#N)=C(N)OC5=C4C(=O)CCC5)cc(C(C)C)c3oc2=O)cc(OC)c1OC` (centres undefined), the inhibition in vivo at 0.5 mg/kg with Mus musculus [4] came out at 31.9%.
For `COc1cc(-c2cc3cc(C4C(C#N)=C(N)OC5=C4C(=O)CC(C)(C)C5)cc(C(C)(C)C)c3oc2=O)cc(OC)c1OC` (centres undefined), in the data set with Mus musculus [4], the inhibition in vivo at 0.5 mg/kg came out at 30.1%.
